PMC8607231, “Generation of KS-133 as a Novel Bicyclic Peptide with a Potent and Selective VIPR2 Antagonist Activity that Counteracts Cognitive Decline in a Mouse Model of Psychiatric Disorders” (Frontiers in Pharmacology, 2021)
Where a SMILES comes first, the peptide text is derived from it. Bridges are numbered along the chain shown (N, C = ends).

Columns and labels:
Type in all cases: cell-based
human PAC1 = target: T1, human PAC1 (Homo sapiens, UniProt P41586); test: Calcium influx assay, antagonist activity against PACAP-PAC1 signaling; settings: ligand PACAP (35 nM) at EC80; CHO-K1 cells; n = 4 wells, ± S.E.M; read-out: Ca influx assay [IC50 (nM)] PAC1
T1 construct: host or cells: CHO-K1
T1 sequence (P41586 21-468): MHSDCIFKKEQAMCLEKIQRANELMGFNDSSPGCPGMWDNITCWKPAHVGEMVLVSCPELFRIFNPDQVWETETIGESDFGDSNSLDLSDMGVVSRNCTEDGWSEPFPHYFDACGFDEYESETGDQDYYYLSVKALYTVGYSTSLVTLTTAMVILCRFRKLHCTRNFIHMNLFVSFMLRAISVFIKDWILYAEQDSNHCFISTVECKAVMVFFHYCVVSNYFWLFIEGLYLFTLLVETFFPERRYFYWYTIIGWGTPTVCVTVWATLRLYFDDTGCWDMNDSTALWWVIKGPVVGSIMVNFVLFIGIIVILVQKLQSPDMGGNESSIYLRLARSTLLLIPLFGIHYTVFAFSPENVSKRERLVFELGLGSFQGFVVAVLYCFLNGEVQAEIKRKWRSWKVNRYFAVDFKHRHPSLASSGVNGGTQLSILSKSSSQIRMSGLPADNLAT
Description: (§1) Evaluation of antagonist activities of peptides against VIP-VIPR1, VIP-VIPR2, and PACAP-PAC1 signaling pathways and agonistic activity of KS-133 at VIPR2 was carried out by Eurofins DiscoverX (Fremont, CA, United States). Intracellular calcium mobilization was monitored using a calcium-sensitive dye loaded in CHO-K1 cells expressing human VIPR1 (ITEM 86-0030P-2243AN), VIPR2 (ITEM 86-0030P-2244AN), and PAC1 (ITEM 86-0030P-2066AN). The cells were preincubated with antagonistic peptides for 30 min at room temperature in the dark. After addition of the ligand at EC80, calcium mobilization was immediately monitored by FLIPR Tetra for 2 min. Cyclic AMP production in CHO-K1 cells expressing human VIPR2 was evaluated using HitHunter® cAMP assays (antagonist mode: ITEM 86-0007P-2362AN; agonist mode: ITEM 86-0007P-2362AG). The cells were preincubated with antagonistic peptides for 30 min at room temperature. After addition of the ligand at EC80, cells were further incubated for 30 min at room temperature. Cells were lysed and the cAMP content of the cell lysate was determined by the β-galactosidase-based enzyme fragment complementation assay ([Eglen, 2002]). IC50 values were estimated by the following equation: IC50 = 10^[Log(A/B) × (50–D)/(C–D) + Log(B)], where A is the concentration at >50% inhibition, B is the concentration at <50% inhibition, C is the inhibition rate at concertation A, and D is the inhibition rate at concertation B.
First, the antagonistic activities of parental VIpep-3, KS-132, KS-133 (monocyclic) (no bridging between Lys^7 and Asp^11), and KS-133 against human VIPR1, VIPR2, and PAC1 were evaluated by a calcium influx assay. After antagonistic peptide treatment for 30 min, ligand at a concentration of EC80 was added to the cells and then calcium signaling was measured.
FIGURE 3 Antagonistic/agonistic activities of peptides in the calcium influx and cAMP assays. For evaluation of the antagonistic activity, the cells were preincubated with antagonistic peptides for 30 min. In the calcium influx assay, after addition of ligand at EC80, calcium mobilization was monitored immediately (see details in the Methods section) (n = 4 wells for each treatment). In the cAMP assay, after a 30 min incubation with the ligand at EC80, cAMP production in cells was measured (see details in the Methods section) (n = 4 wells for each treatment).

human VIPR2 [1] = target: T2, human VIPR2 (Homo sapiens, UniProt P41587); test: HitHunter cAMP assay, antagonist mode
T2 construct: host or cells: CHO-K1
T2 sequence (P41587 24-438): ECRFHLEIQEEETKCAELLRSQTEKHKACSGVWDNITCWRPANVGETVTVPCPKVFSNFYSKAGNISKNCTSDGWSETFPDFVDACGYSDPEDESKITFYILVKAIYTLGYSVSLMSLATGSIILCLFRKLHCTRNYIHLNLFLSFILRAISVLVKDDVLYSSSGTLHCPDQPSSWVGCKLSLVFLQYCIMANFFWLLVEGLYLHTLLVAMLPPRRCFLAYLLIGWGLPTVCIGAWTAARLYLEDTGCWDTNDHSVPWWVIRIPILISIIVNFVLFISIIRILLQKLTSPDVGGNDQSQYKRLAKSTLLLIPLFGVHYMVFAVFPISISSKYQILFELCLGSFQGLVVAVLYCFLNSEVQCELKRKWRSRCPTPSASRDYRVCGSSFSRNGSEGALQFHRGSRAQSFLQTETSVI
Description: as §1, with “The cells were preincubated with antagonistic peptides for 30 min at room temperature. After addition of the ligand at EC80, cells were further incubated for 30 min at room temperature.” left out, “IC50 values were estimated by the following equation: IC50 = 10^[Log(A/B) × (50–D)/(C–D) + Log(B)], where A is the concentration at >50% inhibition, B is the concentration at <50% inhibition, C is the inhibition rate at concertation A, and D is the inhibition rate at concertation B.” left out
(§2) FIGURE 3 Antagonistic/agonistic activities of peptides in the calcium influx and cAMP assays. […] In the calcium influx assay, after addition of ligand at EC80, calcium mobilization was monitored immediately (see details in the Methods section) (n = 4 wells for each treatment). […]
(§3) Next, antagonistic and agonistic activities of KS-133 at VIPR2 were evaluated by a cAMP assay. […]

human VIPR2 [2] = target: T2, human VIPR2; test: HitHunter cAMP assay, agonist mode
Description: as §1, with “The cells were preincubated with antagonistic peptides for 30 min at room temperature. After addition of the ligand at EC80, cells were further incubated for 30 min at room temperature.” left out, “IC50 values were estimated by the following equation: IC50 = 10^[Log(A/B) × (50–D)/(C–D) + Log(B)], where A is the concentration at >50% inhibition, B is the concentration at <50% inhibition, C is the inhibition rate at concertation A, and D is the inhibition rate at concertation B.” left out
as §2, §3

IC50 (human PAC1): > 5000 nM | IC50 (human VIPR2 [1]; ligand VIP (0.5 nM) at EC80, CHO-K1 cells, n = 4 wells, ± S.E.M): 500 ± 79 nM | cAMP assay (nM) Agonistic activity VIPR2 (human VIPR2 [2]; agonist mode, CHO-K1 cells): >5,000 nM | VIPR2 agonist activity (human VIPR2 [2]; cAMP assay, at high concentration of 5 μM): did not exhibit VIPR2 agonist activity
SMILES: CC[C@H](C)[C@H](NC(=O)[C@H](CC(C)C)NC(=O)[C@@H]1CC(=O)NCCCC[C@@H]2NC(=O)[C@@H]3CCCN3C(=O)[C@H](CC(C)C)NC(=O)[C@H](Cc3ccc(O)cc3)NC(=O)[C@@H]3CCCN3C(=O)[C@@H]3CCCN3C(=O)[C@@H](NC(C)=O)CSSC[C@H](NC(=O)[C@H](CC(C)C)NC(=O)[C@H](Cc3ccc(O)cc3)NC2=O)C(=O)N1)C(N)=O [KS-133, Ac-c[Cys-Pro-Pro-Tyr-Leu-Pro-c(Lys-Tyr-Leu-Cys]-Asp)-Leu-Ile-NH2] (Ac-CPPYLPKYLCDLI-NH2; disulfide 1-10; lactam 7-11)
Antagonism of VIP-VIPR2 signaling pathway (human VIPR2 [1]; cAMP assay): antagonized VIP-VIPR2 signaling pathway in a peptide concentration-dependent manner
